The subject of data set [1] is Bacillus subtilis ATCC 6633. The experiment in a line: Antibacterial microdilution broth method. The conditions noted are these: ATCC6633, Mueller–Hinton broth, read-out: MIC B. subtilis ATCC 6633. Format: cell-based. On the procedure:
(§1) The antibacterial and antifungal activities of compounds 4–9 were screened by the microdilution broth method using Mueller–Hinton broth for the growth of bacteria and Mueller–Hinton broth with 2% glucose for the growth of fungi. The antimicrobial assays were carried out following a previous study. The MICs of the aforementioned derivatives were evaluated for the panel of reference microorganisms from the ATCC (American Type Culture Collection), including Gram-positive bacteria (Staphylococcus aureus ATCC 25923, Staphylococcus epidermidis ATCC 12228, Micrococcus luteus ATCC 10240, Bacillus subtilis ATCC 6633, and Bacillus cereus ATCC 10876), Gram-negative bacteria (Escherichia coli ATCC 25922, Proteus mirabilis ATCC 12453, Klebsiella pneumoniae ATCC 13883, and Pseudomonas aeruginosa ATCC 9027), and fungi (Candida albicans ATCC 102231 and Candida parapsilosis ATCC 22019) (LGC Standards, Teddington, Middlesex, UK). Vancomycin (VAN), ciprofloxacin (CIP), and fluconazole (FCZ) were used as standard drugs for comparison. Each experiment was performed in triplicate.

Data set [2] relates to Bacillus cereus ATCC 10876. In words: Antibacterial microdilution broth method. It is filed as cell-based. The settings on record: ATCC10876, Mueller–Hinton broth, read-out: MIC B. cereus ATCC 10876. As for the experimental part:
as §1
A general note: Broth dilution looks for growth in wells or tubes with falling amounts of substance.

Data set [3] has as its system Micrococcus luteus ATCC 10240. The experiment in a line: Antibacterial microdilution broth method. It is filed as cell-based. The settings on record: ATCC10240, Mueller–Hinton broth, read-out: MIC M. luteus ATCC 10240. On the procedure: as §1
The test system of data set [4] is Staphylococcus aureus ATCC 25923. In words: Antibacterial microdilution broth method. The conditions noted are these: Mueller–Hinton broth; for MIC: Staphylococcus aureus, ATCC25923, read-out: MIC S. aureus ATCC 25923. It is filed as cell-based. As for the experimental part: as §1
For data set [5], the system named is Staphylococcus epidermidis ATCC 12228. In words: Antibacterial microdilution broth method. Format: cell-based. The conditions noted are these: Mueller–Hinton broth; for MIC: Staphylococcus epidermidis, ATCC12228, read-out: MIC S. epidermidis ATCC 12228. As for the experimental part: as §1
The test system of data set [6] is Candida parapsilosis ATCC 22019. The experiment in a line: Antifungal microdilution broth method. Format: cell-based. The settings on record: Lodderomyces parapsilosis, ATCC22019; Mueller–Hinton broth with 2% glucose; read-out: MIC C. parapsilosis ATCC 22019. On the procedure: as §1
For data set [7], the system named is Candida albicans ATCC 102231. In words: Antifungal microdilution broth method. Format: cell-based. The conditions noted are these: ATCC102231, Mueller–Hinton broth with 2% glucose, read-out: MIC C. albicans ATCC 102231. On the procedure: as §1
In data set [8] the test system is M. tuberculosis H37Rv (standard strain). In words: Tuberculostatic activity, twofold serial microdilution with Alamar Blue. The conditions noted are these: 21 days at 37 °C; for MIC: Mycobacterium tuberculosis, H37RV, 504 h. Format: cell-based, Mycobacterium tuberculosis.
The subject of data set [9] is HaCaT cells. The experiment in a line: Cytotoxic activity, MTT method. Format: cell-based. The conditions noted are these: Homo sapiens, 72 h, 3 days of incubation. Background: Tetrazolium assays rely on reduction of a dye to a coloured formazan, in cell work by metabolically active cells.
Data set [10] concerns HaCaT cells. In words: Cytotoxic activity, sulforhodamine B method. The conditions noted are these: for IC50: Homo sapiens, 72 h, read-out: IC50-HaCaT SULF; for cytotoxicity against noncancer cells (in words): MTT and sulforhodamine B methods together. Background: Sulforhodamine B stains cellular protein and so reports cell mass.
For data set [11], the system named is Klebsiella pneumoniae ATCC 13883. In words: Antibacterial microdilution broth method. The settings on record: ATCC13883, Mueller–Hinton broth, read-out: MIC K. pneumoniae ATCC 13883. Format: cell-based. As for the experimental part:
as §1

Data set [12] relates to Pseudomonas aeruginosa ATCC 9027. In words: Antibacterial microdilution broth method. It is filed as cell-based. The settings on record: ATCC9027, Mueller–Hinton broth, read-out: MIC P. aeruginosa ATCC 9027. On the procedure:
as §1

The test system of data set [13] is Proteus mirabilis ATCC 12453. In words: Antibacterial microdilution broth method. It is filed as cell-based. The conditions noted are these: ATCC12453, Mueller–Hinton broth, read-out: MIC P. mirabilis ATCC 12453. On the procedure: as §1
Data set [14] deals with Escherichia coli ATCC 25922. In words: Antibacterial microdilution broth method. It is filed as cell-based. The settings on record: ATCC25922, Mueller–Hinton broth, read-out: MIC E. coli ATCC 25922. As for the experimental part: as §1
In the next data set the test system is Gram-positive bacteria. In words: Antibacterial microdilution broth method, summary in text. It is filed as cell-based. The settings on record: read-out: MIC Gram-positive bacteria. On the procedure:
as §1

≈ marks a conversion by molar mass, not a printed value.

Usually MIC stands for the smallest concentration in the dilution series that meets the test's criterion for growth inhibition. Turning to `O=C(O)c1cn(C2CC2)c2cc(N3CCNCC3)c(F)cc2c1=O` [CIP, ciprofloxacin, reference compound], the MIC in data set [1] turned out to be 0.03 µg/mL (≈ 0.0905 µM); in data set [2], 0.12 µg/mL (≈ 0.362 µM); in data set [3], 0.98 µg/mL (≈ 2.96 µM); in data set [4], 0.49 µg/mL (≈ 1.48 µM); in [5] it was 0.49 µg/mL (≈ 1.48 µM).

A word on the melting point: it is the temperature, or range, at which the solid turns liquid. As a reminder, the IC50 is the concentration that gives 50% inhibition. Consider `NC(=NNC(=S)N1CCOCC1)c1cccc(N2CCCC2)n1` [Compound 4, N’-(Morpholine-4-Carbonothioyl)-6-(Pyrrolidin-1-Yl)Picolinohydrazonamide], for which the melting point was 180 to 182 °C. In addition, the MIC in data set [6] is over 1000 µg/mL. Further, the MIC in [7] amounted to 250 µg/mL (≈ 747 µM). Moreover, 16 µg/mL (≈ 47.8 µM) was the least that counted as inhibitory in data set [8] (MIC). In the data set on HaCaT cells [9], the 50% inhibitory concentration (IC50) is over 50 µg/mL. Also, in the data set with HaCaT cells [10], the half-inhibitory concentration (IC50) was over 50 µg/mL and the “cytotoxicity against noncancer cells (in words)” value (“cytotoxicity” below) is “no cytotoxicity”. Further, the MIC in [1] was found to be 7.8 µg/mL (≈ 23.3 µM). The minimal inhibitory concentration (MIC) in data set [11] was over 1000 µg/mL. Moreover, the minimum inhibitory concentration (MIC) in data set [2] amounted to 7.8 µg/mL (≈ 23.3 µM). In addition, in [12], the minimal inhibitory concentration (MIC) is over 1000 µg/mL. Further, the MIC in [3] stood at 7.8 µg/mL (≈ 23.3 µM). Further, the MIC in [13] was over 1000 µg/mL. Further, the minimum inhibitory concentration (MIC) in data set [4] is 3.9 µg/mL (≈ 11.7 µM). In addition, the MIC in data set [14] was over 1000 µg/mL. In addition, the minimal inhibitory concentration (MIC) in data set [5] stood at 1.95 µg/mL (≈ 5.83 µM).

`NC(=NNC(=S)N1CCCC1)c1cccc(N2CCCC2)n1` [Compound 5, 6-(Pyrrolidin-1-Yl)-N’-(Pyrrolidine-1-Carbonothioyl)Picolinohydrazonamide] showed a melting point of 200 to 201 °C. Further, the minimal inhibitory concentration (MIC) in data set [6] was found to be 1000 µg/mL (≈ 3140 µM). Besides, the minimal inhibitory concentration (MIC) in data set [7] is 250 µg/mL (≈ 785 µM). In addition, 2 µg/mL (≈ 6.28 µM) was the least that counted as inhibitory in [8] (MIC). Besides, the IC50 in the data set with HaCaT cells [9] is over 50 µg/mL. Besides, the MIC in the data set on Gram-positive bacteria was 0.49 µg/mL (≈ 1.54 µM). In the data set on HaCaT cells [10], the 50% inhibitory concentration (IC50) is over 50 µg/mL and the “cytotoxicity” value is recorded as “no cytotoxicity”. Besides, the minimal inhibitory concentration (MIC) in data set [1] was found to be 0.49 µg/mL (≈ 1.54 µM). In addition, the MIC in data set [11] was over 1000 µg/mL. For the same compound, the MIC in [2] stood at 7.8 µg/mL (≈ 24.5 µM). The MIC in [12] is over 1000 µg/mL. The MIC in data set [3] was 0.49 µg/mL (≈ 1.54 µM). The minimal inhibitory concentration (MIC) in [13] was over 1000 µg/mL. Also, in data set [4], the MIC was found to be 0.49 µg/mL (≈ 1.54 µM). Further, in data set [14], the minimum inhibitory concentration (MIC) was over 1000 µg/mL. Further, the MIC in data set [5] was 0.49 µg/mL (≈ 1.54 µM).

As to `NC(=NNC(=S)N1CCOCC1)c1cccc(N2CCCCC2)n1` [Compound 6, N’-(Morpholine-4-Carbonothioyl)-6-(Piperidin-1-Yl)Picolinohydrazonamide], the melting point was 177 to 178 °C. Further, the minimum inhibitory concentration (MIC) in data set [6] stood at 1000 µg/mL (≈ 2870 µM). The minimal inhibitory concentration (MIC) in data set [7] was found to be 1000 µg/mL (≈ 2870 µM). In addition, in data set [8], the MIC amounted to 8 µg/mL (≈ 23 µM). Also, 9.49 µg/mL (≈ 27.2 µM) corresponded to half-maximal inhibition with HaCaT cells [9] (IC50). In the data set on HaCaT cells [10], the IC50 was over 50 µg/mL and the “cytotoxicity” value is “inhibited cell metabolic activity while maintaining cell viability”. Also, the MIC in [1] came to 7.8 µg/mL (≈ 22.4 µM). The MIC in data set [11] is over 1000 µg/mL. In [2], the MIC was 7.8 µg/mL (≈ 22.4 µM). The MIC in data set [12] is over 1000 µg/mL. Besides, in data set [3], the MIC turned out to be 0.98 µg/mL (≈ 2.81 µM). Also, the minimum inhibitory concentration (MIC) in data set [13] was over 1000 µg/mL. Further, in [4], the minimal inhibitory concentration (MIC) came out at 1.95 µg/mL (≈ 5.6 µM). Moreover, the minimum inhibitory concentration (MIC) in [14] was over 1000 µg/mL. The minimal inhibitory concentration (MIC) in data set [5] came to 0.98 µg/mL (≈ 2.81 µM).

As for `NC(=NNC(=S)N1CCCC1)c1cccc(N2CCCCC2)n1` [Compound 7, 6-(Piperidin-1-Yl)-N’-(Pyrrolidine-1-Carbonothioyl)Picolinohydrazonamide], the melting point was in the range of 166 to 168 °C. In addition, the MIC in [6] was 7.8 µg/mL (≈ 23.5 µM). Moreover, the minimum inhibitory concentration (MIC) in data set [7] came out at 15.6 µg/mL (≈ 46.9 µM). In addition, in [8], the “MIC H37Rv” value was found to be 2 µg/mL (≈ 6.02 µM) and inhibition of growth (MIC) required 2 µg/mL (≈ 6.02 µM). In the data set on HaCaT cells [9], this compound displayed an IC50 of over 50 µg/mL. Besides, in the data set with Gram-positive bacteria, the minimum inhibitory concentration (MIC) amounted to 0.49 µg/mL (≈ 1.47 µM). In the data set with HaCaT cells [10], the IC50 is over 50 µg/mL and the “cytotoxicity” value is given as “no cytotoxicity”. Further, the MIC in [1] was determined as 1.95 µg/mL (≈ 5.87 µM). For the same compound, the minimum inhibitory concentration (MIC) in [11] was over 1000 µg/mL. Also, the MIC in [2] was found to be 1.95 µg/mL (≈ 5.87 µM). The MIC in data set [12] was over 1000 µg/mL. For the same compound, the MIC in data set [3] is 1.95 µg/mL (≈ 5.87 µM). For the same compound, the MIC in [13] is over 1000 µg/mL. Moreover, in [4], the “MIC S. aureus ATCC 25923” value is 0.49 µg/mL (≈ 1.47 µM) and the MIC was 0.49 µg/mL (≈ 1.47 µM). In data set [14], the minimal inhibitory concentration (MIC) is over 1000 µg/mL. In data set [5], the “MIC S. epidermidis ATCC 12228” value amounted to 0.49 µg/mL (≈ 1.47 µM) and the MIC is 0.49 µg/mL (≈ 1.47 µM).

These data come from paper PMC9822072, “Synthesis and Structure–Activity Relationship of 2,6-Disubstituted Thiosemicarbazone Derivatives of Pyridine as Potential Antituberculosis Agents” (Materials, 2023).
